Data on 1 compound can be found in US12318452B2, “Degraders of WEE1 kinase” (DANA-FARBER CANCER INSTITUTE, INC., priority 2018, dated 2025).

The target in one assay is kinome (Wee1, PLK1). Nature of the assay: KINOMEscan profiling. Format: binding. To be noted: 1 μM.
A further assay has as its system MOLT4 proteome. Nature of the assay: Multiplexed quantitative mass spectrometry-based proteomics in MOLT4 cells. It is filed as cell-based, human. To be noted: 100 nM. How it is done:
MOLT4 cells were treated with DMSO or 100 nM of compound 13 for 2 or 4 hours in biological triplicates and lenalidomide in biological duplicates for 4 hours and cells were harvested by centrifugation. Lysis buffer (8 M Urea, 50 mM NaCl, 50 mM 4-(2hydroxyethyl)-1-piperazineethanesulfonic acid (EPPS) pH 8.5, Protease and Phosphatase inhibitors from Roche) was added to the cell pellets and homogenized by 20 passes through a 21 gauge (1.25 in. long) needle to achieve a cell lysate with a protein concentration between 1-4 mg mL^−1. A micro-BCA assay (Pierce™) was used to determine the final protein concentration of protein in the cell lysate. 200 μg of protein for each sample were reduced and alkylated as previously described in Donovan et al., Elife 7:e38430 (2018).
Proteins were precipitated using methanol/chloroform. In brief, four volumes of methanol were added to the cell lysate, followed by one volume of chloroform, and finally three volumes of water. The mixture was vortexed and centrifuged to separate the chloroform phase from the aqueous phase. The precipitated protein was washed with three volumes of methanol, centrifuged and the resulting washed precipitated protein was allowed to air dry. Precipitated protein was resuspended in 4 M Urea, 50 mM HEPES pH 7.4, followed by dilution to 1 M urea with the addition of 200 mM EPPS, pH 8. Proteins were first digested with LysC (1:50; enzyme: protein) for 12 hours at room temperature. The LysC digestion was diluted down to 0.5 M Urea with 200 mM EPPS pH 8 and then digested with trypsin (1:50; enzyme:protein) for 6 hours at 37° C. Tandem mass tag (TMT) reagents (Thermo Fisher Scientific) were dissolved in anhydrous acetonitrile (ACN) according to manufacturer instructions. […] The sample channels were combined at a 1:1:1:1:1:1:1:1:1:1:1 ratio, desalted using C18 solid phase extraction cartridges (Waters®) and analyzed by LC-MS for channel ratio comparison. Samples were then combined using the adjusted volumes determined in the channel ratio analysis and dried down in a speed vacuum. […]

The subject of the next assay is pCDK1 Y15. Nature of the assay: Downstream signalling immunoblot in MOLT4 cells (pCDK1 Y15, cleaved PARP, γH2Ax). Format: cell-based. As to the method: Whole cell lysates for immunoblotting were prepared by pelleting cells from each cell line at 4° C. (300 g) for 5 minutes. The resulting cell pellets were washed 1× with ice-cold PBS and then resuspended in RIPA lysis buffer (Sigma, cat #R0278) supplemented with protease and phosphatase inhibitor tablets (Roche cat #4906845001). Lysates were clarified at 14,000 rpm for 15 minutes at 4° C. prior to quantification by BCA assay (Pierce™, cat #23225). Whole cell lysates were loaded into Bolt 4-12% Bis-Tris Gels (Thermo Fisher, cat #NW04120BOX) and separated by electrophoreses at 95 V for 1.5 hours. The gels were transferred to a nitrocellulose membrane using the iBlot® Gel Transfer at P3 for 7 minutes (Thermo Fisher, cat #IB23001) and then blocked for 1 hour at room temperature in Odyssey® blocking buffer (LICOR® Biosciences, cat #927-50010). Membranes were probed using antibodies against the relevant proteins at 4° C. overnight in 20% Odyssey® Blocking Buffer in 1×TBST. Membranes were then washed three times with 1×TBST (at least 5 minutes per wash) followed by incubation with the IRDye® goat anti-mouse (LICOR®, cat #926-32210) or goat anti-rabbit (LICOR®, cat #926-32211) secondary antibody (diluted 1:10,000) in 20% Odyssey® Blocking Buffer in 1×TBST for 1 hour at room temperature. After three washes with 1×TBST (at least 5 minutes per wash), the immunoblots were visualized using the ODYSSEY® Infrared Imaging System (LICOR®).
MOLT4 cells were plated at 1.5 million cells per well in a 6-well plate, with 3 mL of media per well. Cells were then immediately treated with the indicated concentration of the indicated compound and incubated for the indicated amount of time. Cells were collected by transferring each well to a 15 mL conical, centrifuging (1000 rpm for 3 min), then washing the cell pellet 2× with cold PBS. Each cell pellet was then lysed in 100 μL of RIPA lysis buffer (+protease/phosphatase inhibitors). Samples were normalized and prepped in 4×LDS+10% β-mercaptoethanol and boiled for 5 min at 95° C. Lysates were probed for specified proteins by western blotting using the Bolt® system (Life Technologies™)
The effects of targeted Wee1 degradation on the cell cycle were evaluated. Wee1 is required for the temporal regulation of CDK1 at the G2/M cell-cycle checkpoint, and Wee1 loss therefore […] via activation of CDK1. Following loss of Wee1 activity, cells are expected to enter mitosis before completing DNA repair, ultimately resulting in excessive unrepaired DNA damage, mitotic catastrophe, and apoptosis (Beck et al., Mol. Cell Biol. 32:4226-4236 (2012)).
Background: Immunoblotting shows a protein as a band on a membrane.

Turning to `C=CCn1c(=O)c2cnc(Nc3ccc(N4CCN(CCCNc5cccc6c5C(=O)N(C5CCC(=O)NC5=O)C6=O)CC4)cc3)nc2n1-c1cccc(C(C)(C)O)n1` (stereo not shown) [Compound 13, 4-((3-(4-(4-((2-allyl-1-(6-(2-hydroxypropan-2-yl)pyridin-2-yl)-3-oxo-2,3-dihydro-1H-pyrazolo[3,4-d]pyrimidin-6-yl)amino)phenyl)piperazin-1-yl)propyl)amino)-2-(2,6-dioxopiperidin-3-yl)isoindoline-1,3-dione], at kinome (Wee1, PLK1), the “Kinase engagement in KINOMEscan” value is “strong engagement of both Wee1 and PLK1”. In the assay on MOLT4 proteome, the “ZFP91 degradation by proteomics” value is given as “low levels of ZFP91 degradation”. Further, in the assay with MOLT4 proteome (2 hours), the “PLK1 downregulation by proteomics” value is reported as “No downregulation of PLK1” and the “Wee1 abundance Log2FC” value is −1.97. Further, in the assay with pCDK1 Y15 (CRBN−/− MOLT4 cells), the “Dose from which pCDK1 Y15 is decreased” value is 1 μM. The “Fold lower doses than AZD1775 for the same downstream effects” value with pCDK1 Y15 (MOLT4 cells) was “up to 10 fold”. For the same compound, in the assay with pCDK1 Y15 (parental MOLT4 cells), the “Dose from which pCDK1 Y15 is reduced” value was 100 nM.
